From US8022103B2, “Ester prodrugs of prostratin and related phorbol compounds” (Salvia Sciences, Inc., priority 2005, dated 2011)
Values after ≈ are worked out from the molar mass of the structure shown. Like-named read-outs stand apart in the source and are kept apart here.

Tests used:
CEM-SS cells = test: MTS cell viability in CEM-SS cells (cytotoxicity); assay type: cell-based; settings: for TC50: MTS; for Cytotoxicity: at the concentrations evaluated
Method: (§1) Cell Preparation. CEM-SS cells were passaged in T-75 flasks prior to use in the antiviral assay. On the day preceding the assay, the cells were split 1:2 to assure they were in an exponential growth phase at the time of infection. Total cell and viability quantification was performed using a hemacytometer and trypan blue exclusion. Cell viability was greater than 95% for the cells to be utilized in the assay. The cells were resuspended at 5×10^4 cells/ml in tissue culture medium and added to the drug-containing microliter plates in a volume of 50 μl.
MTS Staining for Cell Viability. At assay termination, the assay plates were stained with the soluble tetrazolium-based dye MTS (Cell Titer Reagent Promega) to determine cell viability and quantify compound toxicity. At termination of the assay, 20 μL of MTS reagent was added per well. The microtiter plates were then incubated 4 6 hrs at 37° C. Adhesive plate sealers were used in place of the lids, the sealed plate was inverted several times to mix the soluble formazan product and the plate was read spectrophotometrically at 490/650 ηm with a Molecular Devices Vmax plate reader.
Data Analysis. Using an in-house computer program, IC50 (50%, inhibition of virus replication), IC95 (95%, inhibition of virus replication), TC50 (50% reduction in cell viability), TC95 (95% reduction in cell viability), and a therapeutic index (TI=TC50/IC50) were determined.

HIV-1IIIB = test: HIV-1 antiviral cytoprotection assay in CEM-SS cells; assay type: cell-based
Method: Antiviral efficacy of SA-101A and SA-101B compounds were evaluated in an HIV 1 antiviral cytoprotection assay using CEM-SS cells and the laboratory adapted HIV 1IIIB virus strain.
Compound preparation. Compounds SA-101A and SA-101B were prepared in powder form and solubilized in DMSO and stored at −20° C. AZT (Sigma), solubilized in sterile H2O, was used as a positive antiviral control and was stored at 4° C. The compounds were evaluated at a high test concentration of 500 μg/mL. AZT was run in parallel at a concentration of 500 nM.
as §1, with “The cells were resuspended at 5×10^4 cells/ml in tissue culture medium and added to the drug-containing microliter plates in a volume of 50 μl.” left out
Virus Preparation. […] The virus was resuspended and diluted into tissue culture medium such that the amount of virus added to each well in a volume of 50 μl was the amount determined to give approximately 90% cell killing at 6 days post-infection.
MTS Staining for Cell Viability. At assay termination, the assay plates were stained with the soluble tetrazolium-based dye MTS (Cell Titer Reagent Promega) to determine cell viability and quantify compound toxicity. […]

Hepatitis B Virus = test: HepG2 2.2.15 antiviral assay (HBV DNA, TaqMan PCR); assay type: cell-based, Hepatitis B (HBV); settings: HepG2 2.2.15 cells
Method: Compounds SA-101A and SA-101B were evaluated for effect on Hepatitis B Virus replications using a cell culture based HBV replication system.
Compound preparation. The compounds were prepared in powder form (˜1 mg) and solubilized in DMSO prior to use. Compound 3TC was used as positive antiviral control.
HepG2 2.2.15 Antiviral Assay. The assay developed is similar to that described ion the literature (Korba et al., 1991, Antiviral Res. 15: 217-228; Korba et al., 1992, Antiviral Res. 19: 55-70) with the exception that viral DNA detection and quantification have been improved and simplified (Buckwold et al., 2004, Antiviral Res. 61(1): 57-62). Briefly, HepG2-2.2.15 cells are plated in 96-well microtiter plates. […] Six days following the initial administration of the test compound, the cell culture supernatant is collected, treated with pronase and DNAse and then used in a real-time quantitative TaqMan PCR assay. The PCR-amplified HBV DNA is detected in real-time by monitoring increases in fluorescence signals that result from the exonucleolytic degradation of a quenched fluorescent probe molecule that hybridizes to the amplified HBV DNA. […] Antiviral activity is calculated from the reduction in HBV DNA levels (IC50). […] The therapeutic index (TI) is calculated as TC50/IC50.

[1] = system: cell line ET (luc-ubi-neo/ET), human Huh7 hepatoma; test: CytoTox-ONE cytotoxicity in ET (luc-ubi-neo/ET) Huh7 cells; assay type: cell-based
Method: Luciferase assay. The ET cell line is grown in Dulbecco's modified essential media (DMEM), 10% fetal bovine serum (FBS), 1% penicillin-streptomycin (pen-strep), 1% glutamine, […] G418 in a 5% CO2 incubator at 37° C. All cell culture reagents are from Gibco Life Technologies. Cells are trypsinized (1% trypsin:EDTA) and plated out at 5×10^3 cells/well in white 96-well assay plates (Costar) dedicated to cell number (cytotoxicity) or antiviral activity (Luc) assessments. Drugs are added at five half-log concentrations each and the assay is run in DMEM, 5% FBS, 1% pen-strep, 1% glutamine. Human interferon alpha-2b (PBL Biolabs, New Brunswick, N.J.) is included in each run as a positive control compound. […] Compound IC50 and IC90 values (antiviral activity) are derived from plots of HCV RNA levels assessed as HCV RNA replicon-derived Luc activity versus drug concentration using Steady-Glo assay reagent (Promega), with Luc luminescence read on a 1450 Microbeta liquid scintillation and luminescence counter. Compound TC50 and TC90 values (cytotoxicity) are calculated from plots of cell number vs. drug concentration using data from the CytoTox-ONE cell proliferation assay (Promega); with fluorescence read using an Analyst HT fluorometer. […] Compound selectivity indices (SI=TC/IC) SI50 and SI90 values are calculated from spreadsheets.

SMILES | TC50 (CEM-SS cells) [µg/mL] | Cytotoxicity (CEM-SS cells) | IC50 (HIV-1IIIB) | EC50 (inhibition of HBV) (Hepatitis B Virus) | Cytotoxicity [1] | IC50 (HIV-1IIIB; Human immunodeficiency virus 1, read-out: IC50) [µg/mL]
CC(=O)OC12CC(C)C3(O)C(C=C(COC(=O)CCC(=O)O)CC4(O)C(=O)C(C)=CC43)C1C2(C)C (stereo not shown) [SA-101B, Prostratin Succinate] | >0.50 | no cytotoxicity | did not achieve an IC50 value | did not achieve EC50 values | did not display any appreciable cytotoxicity | –
CC(=O)O[C@@]12C[C@@H](C)[C@@]3(O)[C@@H](C=C(CO)C[C@]4(O)C(=O)C(C)=C[C@@H]34)[C@@H]1C2(C)C [SA-101A, 12-deoxyphorbol 13-acetate] | >0.50 | no cytotoxicity | – | did not achieve EC50 values | did not appear to be active or cytotoxic | 0.086 (≈ 0.22 µM)
